US20130171098A1, “Cyclopropyl Fused Indolobenzazepine HCV NS5B Inhibitors” (priority 2006, published 2013)
Like-named read-outs stand apart in the source and are kept apart here.

Assays:
[1] = target: T1, HCV NS5B RdRp genotype 1b (Hepatitis C virus genotype 1b, UniProt Q9WMX2); experiment: HCV NS5B RdRp enzyme assay (standard / modified); format: biochemical
T1 construct: The protein was expressed with an 18 amino acid C-terminal truncation to enhance the solubility; made in house; host or cells: E. coli BL21(DE3), pET21a vector
Protocol: HCV NS5B RdRp Cloning, Expression, and Purification.
The cDNA encoding the NS5B protein of HCV, genotype 1b, was cloned into the pET21a expression vector. The protein was expressed with an 18 amino acid C-terminal truncation to enhance the solubility. The E. coli competent cell line BL21(DE3) was used for expression of the protein. Cultures were grown at 37° C. for ˜4 hours until the cultures reached an optical density of 2.0 at 600 nm. The cultures were cooled to 20° C. and induced with 1 mM IPTG. Fresh ampicillin was added to a final concentration of 50 μg/ml and the cells were grown overnight at 20° C.
The lysis buffer consisted of 20 mM Tris-HCl, pH 7.4, 500 mM NaCl, 0.5% triton X-100, 1 mM DTT, 1 mM EDTA, 20% glycerol, 0.5 mg/ml lysozyme, 10 mM MgCl2, 15 ug/ml deoxyribonuclease I, and Complete TM protease inhibitor tablets (Roche). After addition of the lysis buffer, frozen cell pellets were resuspended using a tissue homogenizer. To reduce the viscosity of the sample, aliquots of the lysate were sonicated on ice using a microtip attached to a Branson sonicator. The sonicated lysate was centrifuged at 100,000×g for 1 hr at 4° C. and filtered through a 0.2 μm filter unit (Corning).
The protein was purified using two sequential chromatography steps: Heparin sepharose CL-6B and polyU sepharose 4B (Pharmacia). The chromatography buffers were identical to the lysis buffer but contained no lysozyme, deoxyribonuclease I, MgCl2 or protease inhibitor and the NaCl concentration of the buffer was adjusted according to the requirements for charging the protein onto the column. Each column was eluted with a NaCl gradient which varied in length from 5-50 column volumes depending on the column type. […] The enzyme was aliquoted and stored at −80° C.
Standard HCV NS5B RdRp Enzyme Assay.
HCV RdRp genotype 1b assays were run in a final volume of 60 μl in 96 well plates (Corning 3600). The assay buffer is composed of 20 mM Hepes, pH 7.5, 2.5 mM KCl, 2.5 mM MgCl2, 1 mM DTT, 1.6 U RNAse inhibitor (Promega N2515), 0.01 mg/ml BSA (Sigma B6917), and 2% glycerol. All compounds were serially diluted (3-fold) in DMSO and diluted further in water such that the final concentration of DMSO in the assay was 2%. HCV RdRp genotype 1b enzyme was used at a final concentration of 28 nM. A polyA template was used at 6 nM, and a biotinylated oligo-dT12 primer was used at 180 nM final concentration. Template was obtained commercially (Amersham 27-4110). Biotinylated primer was prepared by Sigma Genosys. 3H-UTP was used at 0.6 μCi (0.29 μM total UTP). Reactions were initiated by the addition of enzyme, incubated at 30° C. for 60 min, and stopped by adding 25 μl of 50 mM EDTA containing SPA beads (4 μg/μl, Amersham RPNQ 0007). Plates were read on a Packard Top Count NXT after >1 hr incubation at room temperature.
Modified HCV NS5B RdRp Enzyme Assay.
A modified enzyme assay was performed essentially as described for the standard enzyme assay except for the following: The biotinylated oligo dT12 primer was precaptured on streptavidin-coated SPA beads by mixing primer and beads in assay buffer and incubating at room temperature for one hour. Unbound primer was removed after centrifugation. The primer-bound beads were resuspended in 20 mM Hepes buffer, pH 7.5 and used in the assay at final concentrations of 20 nM primer and 0.67 μg/μl beads. Order of addition in the assay: enzyme (1.75 nM) was added to diluted compound followed by the addition of a mixture of template (0.36 nM), 3H-UTP (0.6 μCi, 0.29 μM), and primer-bound beads, to initiate the reaction; concentrations given are final. Reactions were allowed to proceed for 4 hours at 30° C.
IC50 values for compounds were determined using seven different [I].

[2] = test system: HCV replicon cells; experiment: HCV replicon FRET / luciferase assay; format: cell-based, Hepatitis C virus
Protocol: The HCV FRET screening assay was performed in 96-well cell culture plates. The FRET peptide (Anaspec, Inc.) (Taliani et al., Anal. Biochem. 1996, 240, 60-67) contains a fluorescence donor, EDANS, near one end of the peptide and an acceptor, DABCYL, near the other end. The fluorescence of the peptide is quenched by […] resonance energy transfer (RET) between the donor and the acceptor, but as the NS3 protease cleaves the peptide the products are released from RET quenching and the fluorescence of the donor becomes apparent. The assay reagent was made as follows: 5× cell Luciferase cell culture lysis reagent from Promega (#E153A) diluted to 1× with dH2O, NaCl added to 150 mM final, the FRET peptide diluted to 20 μM final from a 2 mM stock.
To prepare plates, HCV replicon cells, with or without a Renilla luciferase reporter gene, were trypsinized and plated in a 96-well plate with titrated test compounds added in columns 3 through 12; columns 1 and 2 contained a control compound (HCV control inhibitor), and the bottom row contained cells with DMSO only. The plates were then placed in a CO2 incubator at 37° C.
Subsequent to addition of the test compounds described above (FRET Assay Preparation), at various times the plate was removed and Alamar blue solution (Trek Diagnostics, #00-100) was added to measure cellular toxicity. After reading in a Cytoflour 4000 instrument (PE Biosystems), plates were rinsed with PBS and then used for FRET assay by the addition of 30 ul of the FRET peptide assay reagent described above (FRET Assay Preparation) per well. The plate was then placed into the Cytoflour 4000 instrument which had been set to 340 excite/490 emission, automatic mode for up to 20 cycles and the plate read in a kinetic mode. Typically, the signal to noise using an endpoint analysis after the reads was at least three-fold. Alternatively, after Alamar blue reading, plates were rinsed with PBS, then used for luciferase assay using the Promega Dual-Glo Luciferase Assay System or the Promega EnduRen Live Cell Substrate assay.
Compound analysis was performed by quantification of the relative HCV replicon inhibition and the relative cytotoxicity values. To calculate cytoxicity values, the average Alamar Blue fluorescence signals from the control wells were set as 100% non-toxic. The individual signals in each of the compound test wells were then divided by the average control signal and multiplied by 100% to determine […]. To calculate the HCV replicon inhibition values, an average background value was obtained from the two wells containing the highest amount of HCV control inhibitor at the end of the assay period. These numbers were similar to those obtained from naïve Huh-7 cells. The background numbers were then subtracted from the average signal obtained from the control wells and this number was used as 100% activity. The individual signals in each of the compound test wells were then divided by the averaged control values after background subtraction and multiplied by 100% to determine percent activity. […] The two numbers generated for the compound plate, percent cytoxicity and percent activity, were used to determine compounds of interest for further analysis.

[3] = HCV NS5B RdRp genotype 1b enzyme
[4] = HCV replicon cells, FRET or luciferase activity

T1 sequence (Q9WMX2 2420-2992): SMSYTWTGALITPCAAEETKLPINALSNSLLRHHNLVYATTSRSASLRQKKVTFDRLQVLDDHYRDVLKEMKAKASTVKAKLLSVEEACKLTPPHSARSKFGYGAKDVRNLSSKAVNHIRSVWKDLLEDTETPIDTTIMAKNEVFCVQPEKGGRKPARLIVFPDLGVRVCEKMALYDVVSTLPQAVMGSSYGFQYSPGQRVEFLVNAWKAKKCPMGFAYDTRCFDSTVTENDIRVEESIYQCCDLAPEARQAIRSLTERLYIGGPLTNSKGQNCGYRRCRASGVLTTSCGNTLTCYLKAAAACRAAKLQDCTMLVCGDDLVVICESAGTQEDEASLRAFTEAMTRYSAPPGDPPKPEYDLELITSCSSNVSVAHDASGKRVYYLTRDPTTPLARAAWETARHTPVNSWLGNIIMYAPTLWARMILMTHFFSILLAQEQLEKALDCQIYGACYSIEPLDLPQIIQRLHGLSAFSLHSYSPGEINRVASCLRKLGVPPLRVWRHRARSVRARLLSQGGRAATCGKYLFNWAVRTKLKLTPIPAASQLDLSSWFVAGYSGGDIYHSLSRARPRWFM

SMILES | IC50 [1] [nM] | EC50 ([2]; Hepatitis C virus) [nM] | IC50 [1, 3] [nM] | EC50 [2, 4] [nM] | also measured
CN1CC2CCC(C1)N2C(=O)C1=Cc2c(OC(F)(F)F)cccc2-c2c(C3CCCCC3)c3ccc(C(=O)NS(=O)(=O)N(C)C)cc3n2C1 | > 500 | > 500 |  |  | 
COc1ccc2c(c1)C1CC1(C(=O)N1[C@@H]3CC[C@H]1CN(C(=O)N(C)C)C3)Cn1c-2c(C2CCCCC2)c2ccc(C(=O)NS(=O)(=O)N(C)C)cc21 (some centres unmarked) | 1 to 500 | 1 to 500 |  |  | 
COc1ccc2c(c1)C1CC1(C(=O)N1CC3CCC(C1)N3C)Cn1c-2c(C2CCCCC2)c2ccc(C(=O)NS(=O)(=O)N(C)C)cc21 (centres unmarked) | 1 to 500 | 1 to 500 |  |  | 
COc1ccc2c(c1)C1CC1(C(=O)N1C3CCC1CN(C)C3)Cn1c-2c(C2CCCCC2)c2ccc(C(=O)NS(=O)(=O)N(C)C(C)C)cc21 (centres unmarked) [drawing 111] |  |  | 1 to 500 | 1 to 500 | 
CCN(CC)C(=O)N1CC2CCC(C1)N2C(=O)C12CC1c1cc(OC)ccc1-c1c(C3CCCCC3)c3ccc(C(=O)NS(=O)(=O)N4CCN(C)CC4)cc3n1C2 (centres unmarked) [drawing 106] |  |  | 1 to 500 | 1 to 500 | 
CCC(C)S(=O)(=O)NC(=O)c1ccc2c(C3CCCCC3)c3n(c2c1)C[C@@]1(C(=O)N2C4CCC2CN(C)C4)C[C@H]1c1cc(OC)ccc1-3 (some centres unmarked) [drawing 133] |  |  | 1 to 500 | 1 to 500 | 
COc1ccc2c(c1)C1CC1(C(=O)N1C3CCC1CN(C(C)=O)C3)Cn1c-2c(C2CCCCC2)c2ccc(C(=O)NS(=O)(=O)N(C)C)cc21 (centres unmarked) [drawing 60] |  |  | 1 to 500 | 1 to 500 | 
CCC(C)S(=O)(=O)NC(=O)c1ccc2c(C3CCCCC3)c3n(c2c1)C[C@@]1(C(=O)N2C4CCC2CN(C)C4)C[C@H]1c1cc(OC)ccc1-3 (some centres unmarked) [drawing 132] | 1 to 500 | 1 to 500 |  |  | 
COc1ccc2c(c1)C1CC1(C(=O)N1C3CCC1CN(c1ccccn1)C3)Cn1c-2c(C2CCCCC2)c2ccc(C(=O)NS(=O)(=O)N(C)C)cc21 (centres unmarked) [drawing 67] |  |  | 1 to 500 | 1 to 500 | 
CN1CC2CCC(C1)N2C(=O)C12CC1c1cc(OCc3ccccc3)ccc1-c1c(C3CCCCC3)c3ccc(C(=O)NS(=O)(=O)N(C)C)cc3n1C2 (centres unmarked) [drawing 69] |  |  | 1 to 500 | 1 to 500 | 
COc1ccc2c(c1)[C@H]1C[C@@]1(C(=O)N1[C@@H]3CC[C@H]1CN(C)C3)Cn1c-2c(C2CCCCC2)c2ccc(C(=O)NS(=O)(=O)N(C)C)cc21 |  |  |  |  | IC50 ([1]; HCV NS5B RdRp genotype 1b enzyme, read-out: IC50): 1 to 500 nM; EC50 ([2]; Hepatitis C virus, HCV replicon cells, FRET or luciferase activity, read-out: EC50): 1 to 500 nM
CN1CC2CCC(C1)N2C(=O)C12CC1c1cc(OCc3ccccc3)ccc1-c1c(C3CCCCC3)c3ccc(C(=O)NS(=O)(=O)N(C)C)cc3n1C2 (centres unmarked) [drawing 43] | 1 to 500 | 1 to 500 |  |  | 
COc1ccc2c(c1)C1CC1(C(=O)N1C3CCC1CN(C)C3)Cn1c-2c(C2CCCCC2)c2ccc(C(=O)NS(=O)(=O)N3CCN(C)CC3)cc21 (centres unmarked) [drawing 32] | 1 to 500 | 1 to 500 |  |  | 
